In ChEMBL document CHEMBL2046394, “Isolation and characterization of α,β-unsaturated γ-lactono-hydrazides from Streptomyces sp” (J Nat Prod, 2012):
pIC50: −log10 of the molar value. Calls of active or inactive are those of the source. The rule behind the calls is not given here.

Tests used:
[1] = Cytotoxicity against human MDA231 cells assessed as growth inhibition after 72 hrs; assay type: functional, cell-based; details: MDA-MB-231, 72 h
Escherichia coli = assay: Antibacterial activity against Escherichia coli ATCC 25922 by disk inhibition zone method; assay type: functional, organism-based
Micrococcus luteus = assay: Antibacterial activity against Micrococcus luteus ATCC 10240 by disk inhibition zone method; assay type: functional, organism-based
Bacillus subtilis = assay: Antibacterial activity against Bacillus subtilis ATCC 6633 by disk inhibition zone method; assay type: functional, organism-based
Caco-2 = assay: Cytotoxicity against human Caco2 cells by MTT assay; assay type: functional, cell-based

| SMILES | pIC50 [1] | Activity (Escherichia coli) | Activity (Micrococcus luteus) | Activity (Bacillus subtilis) | pIC50 (Caco-2) |
| --- | --- | --- | --- | --- | --- |
| CCCC/C=C\N(NC(C)=O)C(=O)CCC1=CCOC1=O [GERALCIN B] | 5.30 | inactive | inactive | inactive | – |
| COc1cc(/C=C/C(=O)N(CCc2c[nH]c3ccc(O)cc23)N(CCc2c[nH]c3ccc(O)cc23)C(=O)/C=C/c2ccc(O)c(OC)c2)ccc1O [MONTAMINE] | – | – | – | – | 4.36 |
| CCCCCCN(NC(=O)CO)C(=O)CCC1=CCOC1=O | – | inactive | inactive | inactive | – |
| O=C(O)CCC1=CCOC1=O | – | inactive | inactive | inactive | – |
